The results in this text go back to patent US10065948B2, “Histone deacetylase inhibitors and compositions and methods of use thereof” (CHDI Foundation, Inc., priority 2014, dated 2018).

Assay [1] relates to cellular histone deacetylase enzymatic activity in Jurkat E6-1 cells. Kind of assay: Inhibition of cellular HDAC activity, Boc-Lys(Tfa)-AMC substrate (Cell Lys-TFA). The assay is classed as cell-based. As for the experimental part: The potency of the compounds is quantified by measuring the cellular histone deacetylase enzymatic activity using the fluorogenic substrate, Boc-Lys(Tfa)-AMC. After penetration in Jurkat E6-1 cells, the substrate is deacetylated to Boc-Lys-AMC. After cell lysis and cleavage by trypsin, the fluorophore AMC is released from the deacetylated substrate only. The fluorescence of the sample is directly related to the histone deacetylase activity in the sample.
Jurkat E6.1 cells are cultured according to standard cell culture protocols in Jurkat E6.1 Growth Media (RPMI without phenol red, 10% FBS, 10 mM HEPES, and 1 mM Sodium Pyruvate). Jurkat E6.1 cells are counted using a Coulter Counter and resuspended in Jurkat E6.1 growth media at a concentration of 75,000 cells/35 μL. 35 μL or 75,000 cells is seeded into Greiner microtitre assay plates. The plates are then incubated at 37° C. and 5% CO2 while other assay components are being prepared.
Stocks of 70 μL aliquots of the 10 mM compound in DMSO are prepared and stored at −20° C. From one stock aliquot of each compound to be tested and the reference compound, a 16-point serial dilution is prepared according to Table 1 using a 125 μL 16-channel Matrix multi-channel pipette.
2 μL (200×) of each diluted solution and each control (full activity: 100% DMSO alone or full inhibition 1 mM) is stamped into V-bottom polypropylene 384-well compound plates using either the Bravo, Janus, or 12.5 μL 16-channel Matrix multi-channel pipette. Each well with the 200× compound solution is diluted 1:20 by the addition of 38 μL Jurkat assay buffer+DMSO (9.5% DMSO, RPMI without phenol red, 0.09% FBS, 9 mM Hepes, and 0.9 mM Sodium Pyruvate equilibrated to room temperature)
5× (500 μM) substrate is prepared just prior to the addition to the assay. The 5× substrate is prepared by diluting a 100 mM Boc-Lys(Tfa)-AMC in DMSO solution 1:200 by adding it drop-wise to Jurkat assay medium (RPMI without phenol red, 0.1% FBS, 10 mM Hepes, and 1 mM Sodium Pyruvate equilibrated to 37° C.) while vortexing at slow speed to prevent precipitation.
10 mL of 3× lysis buffer is prepared with 8.8 ml of 3× stock lysis buffer (50 mM Tris-HCl, pH 8.0, 137 mM NaCl, 2.7 mM KCl, 1 mM MgCl2, 1% Nonidet P40 Substitute equilibrated to room temperature) and 1.2 mL of 3 mg/mL Trypsin equilibrated to room temperature.
5 μL of each solution of 1:20 diluted compound from above is transferred to the Greiner microtitre assay plates with 75,000 cells/well using the Bravo. Cells are then incubated for 2 hours at 37° C. and 5% CO2. […] The cells are then incubated for 3 hours at 37° C. and 5% CO2. Next, 25 μL of 3× lysis buffer is added to each well using either the 125 μL 16 channel pipette or the Bravo. The assay plate is then incubated overnight (15-16 hours) at 37° C. and 5% CO2. The following day, the plates are shaken on an orbital shaker for 1 minute at 900 rpm. Finally the top read fluorescence (Excitation: 355 nm, Emission: 460 nm) is measured using PerkinElmer EnVision.

Assay [2] deals with cellular histone deacetylase activity (Lys-Ac). Description: Inhibition of cellular HDAC activity (Cell Lys-Ac). The class given is cell-based. The note with it: Lys-Ac substrate.
Setting [3] is: Homo sapiens, Jurkat E6.1, Lys-TFA substrate.

Turning to `Cc1c(F)cccc1C1(C(=O)NO)Cc2nc(-c3cccc(F)c3)sc2C1` (single isomer, unassigned) [Example 64, E1-(abs)-5-(3-Fluoro-2-methylphenyl)-2-(3-fluorophenyl)-N-hydroxy-5,6-dihydro-4H-cyclopenta[d]thiazole-5-carboxamide], the figures for the IC50 in assay [1] (setting [3]) and in assay [2] were 0.11 µM and above 50 µM, respectively.

For the compound `Cc1c(F)cccc1[C@@]1(C(=O)NO)CCc2nc(C3CC3)ncc21` [Example 51, (S)-2-cyclopropyl-5-(3-fluoro-2-methylphenyl)-N-hydroxy-6,7-dihydro-5H-cyclopenta[d]pyrimidine-5-carboxamide], the figures for the IC50 in assay [1] (setting [3]) and in assay [2] were 1.4 µM and above 50 µM, respectively.

For `Cc1c(F)cccc1[C@]1(C(=O)NO)Cc2cnn(-c3ccc(Cl)cc3)c2C1` [Example 8, (S)-1-(4-Chlorophenyl)-5-(3-fluoro-2-methylphenyl)-N-hydroxy-1,4,5,6-tetrahydrocyclopenta[c]pyrazole-5-carboxamide], the IC50 is 0.103 µM in assay [1] (setting [3]) and above 50 µM in assay [2].

In the case of `Cc1c(F)cccc1[C@@]1(C(=O)NO)Cc2snc(-c3ccccc3)c2C1` [Example 81, E2-(abs)-5-(3-Fluoro-2-methylphenyl)-N-hydroxy-3-phenyl-5,6-dihydro-4H-cyclopenta[d]isothiazole-5-carboxamide], the figures for the IC50 in assay [1] (setting [3]) and in assay [2] were 5.6 µM and above 50 µM, respectively.

As for `Cc1c(F)cccc1C1(C(=O)NO)CCc2nn(CC(F)(F)F)cc2C1` (stereo not drawn) [Example 35, 5-(3-Fluoro-2-methylphenyl)-N-hydroxy-1-(2,2,2-trifluoroethyl)-4,5,6,7-tetrahydro-1H-indazole-5-carboxamide and 5-(3-fluoro-2-methylphenyl)-N-hydroxy-2-(2,2,2-trifluoroethyl)-4,5,6,7-tetrahydro-2H-indazole-5-carboxamide], the results for the IC50 in assay [1] (Lys-TFA substrate) and in assay [2] were 0.77 µM and above 50 µM, respectively.

In turn, `Cc1c(F)cccc1C1(C(=O)NO)Cc2nc(-c3cccc(F)c3)sc2C1` (single isomer, unassigned) [Example 65, E2-(abs)-5-(3-fluoro-2-methylphenyl)-2-(3-fluorophenyl)-N-hydroxy-5,6-dihydro-4H-cyclopenta[d]thiazole-5-carboxamide] registered an IC50 in assay [2] above 50 µM.

With `Cc1c(F)cccc1C1(C(=O)NO)CCc2nn(-c3ccccc3F)cc2C1` (single isomer, unassigned) [Example 33, E1-(abs)-5-(3-Fluoro-2-methylphenyl)-2-(2-fluorophenyl)-N-hydroxy-4,5,6,7-tetrahydro-2H-indazole-5-carboxamide], the IC50 in assay [1] (Lys-TFA substrate) was 0.41 µM; in assay [2] it was above 50 µM.

Regarding `Cc1c(F)cccc1[C@]1(C(=O)NO)Cc2cnn(-c3ccc(F)cc3Cl)c2C1` [Example 90, (S)-1-(2-Chloro-4-fluorophenyl)-5-(3-fluoro-2-methylphenyl)-N-hydroxy-1,4,5,6-tetrahydrocyclopenta[c]pyrazole-5-carboxamide], the IC50 in assay [1] (setting [3]) is 0.015 µM; in assay [2], above 50 µM.

As for `Cc1c(F)cccc1[C@@]1(C(=O)NO)CCc2nc(C3CC3)ncc21` (single isomer, unassigned) [Example 57], the IC50 in assay [1] (setting [3]) and in assay [2] was above 50 µM throughout.

As for `Cc1c(F)cccc1C1(C(=O)NO)CCc2nn(-c3ccccc3F)cc2C1` (single isomer, unassigned) [Example 34, E2-(abs)-5-(3-fluoro-2-methylphenyl)-2-(2-fluorophenyl)-N-hydroxy-4,5,6,7-tetrahydro-2H-indazole-5-carboxamide], the IC50 is 26.7 µM in assay [1] (Lys-TFA substrate) and above 50 µM in assay [2].

Turning to `Cc1c(F)cccc1[C@@]1(C(=O)NO)Cc2nc(-c3ccc(F)cc3)sc2C1` [Example 66, (R)-5-(3-Fluoro-2-methylphenyl)-2-(4-fluorophenyl)-N-hydroxy-5,6-dihydro-4H-cyclopenta[d]thiazole-5-carboxamide], the figures for the IC50 in assay [1] (setting [3]) and in assay [2] were 0.098 µM and above 50 µM, respectively.

For `Cc1c(F)cccc1[C@@]1(C(=O)NO)Cc2cnc(C3CC3)nc2C1` [Example 50, (R)-2-Cyclopropyl-6-(3-fluoro-2-methylphenyl)-N-hydroxy-6,7-dihydro-5H-cyclopenta[d]pyrimidine-6-carboxamide], the results for the IC50 in assay [1] (setting [3]) and in assay [2] were 0.12 µM and above 50 µM, respectively.

For the compound `Cc1c(F)cccc1[C@]1(C(=O)NO)Cc2cnn(-c3c(F)cccc3F)c2C1` [Example 11, (S)-1-(2,6-Difluorophenyl)-5-(3-fluoro-2-methylphenyl)-N-hydroxy-1,4,5,6-tetrahydrocyclopenta[c]pyrazole-5-carboxamide], the IC50 was 0.027 µM in assay [1] (setting [3]) and above 50 µM in assay [2].

`Cc1ccccc1-n1ncc2c1CCC(C(=O)NO)(c1cccc(F)c1C)C2` (single isomer, unassigned) [Example 38, E2-(abs)-5-(3-fluoro-2-methylphenyl)-N-hydroxy-1-(o-tolyl)-4,5,6,7-tetrahydro-1H-indazole-5-carboxamide]: the IC50 in assay [1] (Lys-TFA substrate) is 11.2 µM; in assay [2], above 50 µM.

Regarding `Cc1c(F)cccc1[C@]1(C(=O)NO)Cc2cnc(-c3ccc(F)cc3)nc2C1` [Example 55, (S)-6-(3-Fluoro-2-methylphenyl)-2-(4-fluorophenyl)-N-hydroxy-6,7-dihydro-5H-cyclopenta[d]pyrimidine-6-carboxamide], the IC50 in assay [1] (setting [3]) is 0.26 µM; in assay [2], above 50 µM.

As for `O=C(NO)C1(c2ccccc2)Cc2ccccc2C1` [Example 89, N-Hydroxy-2-phenyl-2,3-dihydro-1H-indene-2-carboxamide], the IC50 in assay [1] (setting [3]) and in assay [2] was above 50 µM in each case.

Take `O=C(NO)[C@@]1(c2ccccc2)CCc2ccccc21` [Example 88, E2-(abs)-N-hydroxy-1-phenyl-2,3-dihydro-1H-indene-1-carboxamide]: the IC50 in assay [1] (setting [3]) and in assay [2] was above 50 µM each time.

With `Cc1ccccc1-n1ncc2c1CCC(C(=O)NO)(c1cccc(F)c1C)C2` (single isomer, unassigned) [Example 37, E1-(abs)-5-(3-Fluoro-2-methylphenyl)-N-hydroxy-1-(o-tolyl)-4,5,6,7-tetrahydro-1H-indazole-5-carboxamide], the IC50 was 0.086 µM in assay [1] (Lys-TFA substrate) and above 50 µM in assay [2].

Consider `Cc1c(F)cccc1[C@]1(C(=O)NO)CCc2nc(C3CC3)sc21` [Example 72, (S)-2-Cyclopropyl-6-(3-fluoro-2-methylphenyl)-N-hydroxy-5,6-dihydro-4H-cyclopenta[d]thiazole-6-carboxamide], for which the IC50 in assay [1] (setting [3]) is 0.79 µM; in assay [2], above 50 µM.

For the compound `Cc1cc(F)ccc1-n1cc2c(n1)C[C@](C(=O)NO)(c1cccc(F)c1C)C2` [Example 23, (S)-5-(3-fluoro-2-methylphenyl)-2-(4-fluoro-2-methylphenyl)-N-hydroxy-2,4,5,6-tetrahydrocyclopenta[c]pyrazole-5-carboxamide], the IC50 in assay [1] (setting [3]) is 0.134 µM; in assay [2] it was above 50 µM.

Consider `Cc1c(F)cccc1[C@]1(C(=O)NO)Cc2snc(-c3ccccc3)c2C1` [Example 80, E1-(abs)-5-(3-Fluoro-2-methylphenyl)-N-hydroxy-3-phenyl-5,6-dihydro-4H-cyclopenta[d]isothiazole-5-carboxamide], for which the IC50 was 0.045 µM in assay [1] (setting [3]) and above 50 µM in assay [2].

As for `Cc1c(F)cccc1[C@]1(C(=O)NO)Cc2nc(-c3ccc(F)cc3)sc2C1` [Example 67, (S)-5-(3-fluoro-2-methylphenyl)-2-(4-fluorophenyl)-N-hydroxy-5,6-dihydro-4H-cyclopenta[d]thiazole-5-carboxamide], the IC50 in assay [1] (setting [3]) was 0.29 µM; in assay [2] it was above 50 µM.

Turning to `Cc1c(F)cccc1[C@]1(C(=O)NO)Cc2cnc(C3CC3)nc2C1` [Example 52, (S)-2-Cyclopropyl-6-(3-fluoro-2-methylphenyl)-N-hydroxy-6,7-dihydro-5H-cyclopenta[d]pyrimidine-6-carboxamide], the IC50 was 0.21 µM in assay [1] (setting [3]) and above 50 µM in assay [2].
